Results reported in the supplement of paper PMC12463676, “Small-molecule dissolution of stress granules by redox modulation benefits ALS models” (Nature Chemical Biology, 2025).

Experiments:
potassium arsenate = compound: O=[As]([O-])(O)O.[K+] [potassium arsenate]; experiment: thermal stability z-score vs DMSO; higher = more thermally stabilized by treatment; conditions: HeLa; arsenate concentration 1 mM
Protocol: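 Cellular thermal proteome profiling in HeLa cells treated with 1 mM arsenate for 1 h (DMSO pretreatment), heated to ten temperatures (37-66.3 °C). Soluble protein was quantified by TMT mass spectrometry relative to DMSO controls; the thermal stability score was transformed to a z-score; mean of n = 3 experiments.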

lipoamide = compound: NC(=O)CCCCC1CCSS1 [lipoamide]; experiment: as above; conditions: HeLa, lipoamide concentration 100 µM
Protocol: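 Cellular thermal proteome profiling in HeLa cells. Cells were treated with 100 µM lipoamide for 1 h, with or without 1 mM arsenate for a further 1 h, then heated to ten temperatures (37-66.3 °C), and soluble protein was quantified by TMT mass spectrometry relative to 0.1% DMSO controls. The thermal stability score (sum of log2 fold changes minus the abundance score) was transformed to a z-score; mean of n = 3 experiments.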

[1] = arsenate co-treatment: 1 mM arsenate 1 h
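Further: each temperature applied for 3 min, abundance score taken as mean log2 fold change at the two lowest temperatures, z-score obtained by mean subtraction and division by SD.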

UniProt Q7L7X3, sequence (Q7L7X3 whole entry): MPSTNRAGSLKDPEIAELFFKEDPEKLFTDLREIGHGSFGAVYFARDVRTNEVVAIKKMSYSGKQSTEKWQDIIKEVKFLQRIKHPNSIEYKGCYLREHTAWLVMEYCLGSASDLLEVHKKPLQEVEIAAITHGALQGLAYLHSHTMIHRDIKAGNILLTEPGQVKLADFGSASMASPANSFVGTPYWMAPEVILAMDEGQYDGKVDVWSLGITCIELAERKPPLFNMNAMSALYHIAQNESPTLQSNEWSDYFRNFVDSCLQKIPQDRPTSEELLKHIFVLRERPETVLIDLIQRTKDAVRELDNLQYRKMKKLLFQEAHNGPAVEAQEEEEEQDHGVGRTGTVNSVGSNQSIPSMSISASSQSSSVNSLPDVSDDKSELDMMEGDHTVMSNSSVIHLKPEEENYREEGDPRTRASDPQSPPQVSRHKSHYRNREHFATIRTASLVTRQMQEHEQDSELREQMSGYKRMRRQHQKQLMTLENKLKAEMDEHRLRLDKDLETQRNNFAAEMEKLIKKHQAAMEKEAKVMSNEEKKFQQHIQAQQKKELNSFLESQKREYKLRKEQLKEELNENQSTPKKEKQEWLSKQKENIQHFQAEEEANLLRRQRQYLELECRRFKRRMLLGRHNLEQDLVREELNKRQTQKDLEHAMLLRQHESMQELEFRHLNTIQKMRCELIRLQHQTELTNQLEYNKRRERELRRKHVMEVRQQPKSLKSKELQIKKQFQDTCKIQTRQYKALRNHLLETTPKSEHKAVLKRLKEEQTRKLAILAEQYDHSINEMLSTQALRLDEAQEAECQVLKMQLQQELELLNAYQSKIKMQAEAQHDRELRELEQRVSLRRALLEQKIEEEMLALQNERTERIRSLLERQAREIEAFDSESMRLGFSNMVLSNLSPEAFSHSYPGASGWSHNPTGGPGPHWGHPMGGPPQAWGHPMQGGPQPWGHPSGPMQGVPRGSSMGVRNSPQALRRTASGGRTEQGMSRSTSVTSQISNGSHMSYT
UniProt Q8N488, sequence (Q8N488 whole entry): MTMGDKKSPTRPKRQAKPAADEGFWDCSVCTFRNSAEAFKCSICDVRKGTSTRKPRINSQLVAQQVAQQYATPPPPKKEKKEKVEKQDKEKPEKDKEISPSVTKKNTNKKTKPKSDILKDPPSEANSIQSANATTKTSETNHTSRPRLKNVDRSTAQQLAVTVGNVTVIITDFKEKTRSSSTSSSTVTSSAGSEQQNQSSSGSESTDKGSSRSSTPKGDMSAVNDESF
UniProt P31483, sequence (P31483 whole entry): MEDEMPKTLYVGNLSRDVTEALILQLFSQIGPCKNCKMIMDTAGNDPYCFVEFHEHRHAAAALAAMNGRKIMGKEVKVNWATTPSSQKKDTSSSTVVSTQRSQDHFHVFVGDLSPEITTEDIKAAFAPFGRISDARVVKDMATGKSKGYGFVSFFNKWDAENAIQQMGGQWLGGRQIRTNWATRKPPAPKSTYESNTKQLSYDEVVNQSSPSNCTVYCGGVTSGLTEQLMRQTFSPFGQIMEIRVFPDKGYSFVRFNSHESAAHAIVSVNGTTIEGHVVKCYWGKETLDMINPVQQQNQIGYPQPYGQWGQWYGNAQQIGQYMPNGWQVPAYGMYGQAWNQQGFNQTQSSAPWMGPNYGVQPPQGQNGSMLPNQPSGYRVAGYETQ
UniProt P30825, sequence (P30825 whole entry): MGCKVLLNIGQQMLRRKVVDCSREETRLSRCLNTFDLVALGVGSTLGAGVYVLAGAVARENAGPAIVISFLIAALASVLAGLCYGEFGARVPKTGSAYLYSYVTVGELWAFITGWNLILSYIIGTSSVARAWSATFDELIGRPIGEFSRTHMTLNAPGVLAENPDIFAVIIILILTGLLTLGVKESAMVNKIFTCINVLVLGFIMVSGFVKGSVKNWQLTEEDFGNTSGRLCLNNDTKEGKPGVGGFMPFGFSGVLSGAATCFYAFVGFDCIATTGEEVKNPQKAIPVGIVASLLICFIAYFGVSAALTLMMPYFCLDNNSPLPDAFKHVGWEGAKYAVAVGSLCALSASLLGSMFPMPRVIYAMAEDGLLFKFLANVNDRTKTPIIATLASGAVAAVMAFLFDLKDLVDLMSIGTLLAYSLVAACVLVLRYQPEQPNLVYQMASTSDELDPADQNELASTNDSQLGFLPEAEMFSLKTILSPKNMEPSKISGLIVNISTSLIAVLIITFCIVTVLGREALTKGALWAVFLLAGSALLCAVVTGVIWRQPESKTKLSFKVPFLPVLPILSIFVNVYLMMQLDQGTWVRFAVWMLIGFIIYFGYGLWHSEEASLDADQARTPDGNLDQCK
UniProt P23246, sequence (P23246 whole entry): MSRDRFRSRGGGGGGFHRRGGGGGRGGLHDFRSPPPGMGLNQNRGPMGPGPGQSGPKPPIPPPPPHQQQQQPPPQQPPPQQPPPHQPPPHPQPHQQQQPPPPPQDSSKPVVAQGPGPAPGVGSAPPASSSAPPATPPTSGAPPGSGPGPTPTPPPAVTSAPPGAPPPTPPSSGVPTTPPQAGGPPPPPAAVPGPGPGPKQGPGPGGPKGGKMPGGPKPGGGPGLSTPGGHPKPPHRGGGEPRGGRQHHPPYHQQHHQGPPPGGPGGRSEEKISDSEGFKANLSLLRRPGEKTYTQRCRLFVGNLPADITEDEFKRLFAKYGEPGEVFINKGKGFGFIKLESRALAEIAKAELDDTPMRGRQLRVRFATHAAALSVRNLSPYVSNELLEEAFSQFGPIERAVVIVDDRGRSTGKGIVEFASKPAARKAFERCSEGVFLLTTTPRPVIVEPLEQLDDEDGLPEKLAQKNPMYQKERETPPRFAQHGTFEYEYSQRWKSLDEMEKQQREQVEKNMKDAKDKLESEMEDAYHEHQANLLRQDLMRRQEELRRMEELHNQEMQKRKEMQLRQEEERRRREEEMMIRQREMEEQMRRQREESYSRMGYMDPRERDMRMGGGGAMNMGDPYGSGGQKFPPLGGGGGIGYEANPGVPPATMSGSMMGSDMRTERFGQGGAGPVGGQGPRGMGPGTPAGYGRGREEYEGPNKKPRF
UniProt Q13451, sequence (Q13451 whole entry): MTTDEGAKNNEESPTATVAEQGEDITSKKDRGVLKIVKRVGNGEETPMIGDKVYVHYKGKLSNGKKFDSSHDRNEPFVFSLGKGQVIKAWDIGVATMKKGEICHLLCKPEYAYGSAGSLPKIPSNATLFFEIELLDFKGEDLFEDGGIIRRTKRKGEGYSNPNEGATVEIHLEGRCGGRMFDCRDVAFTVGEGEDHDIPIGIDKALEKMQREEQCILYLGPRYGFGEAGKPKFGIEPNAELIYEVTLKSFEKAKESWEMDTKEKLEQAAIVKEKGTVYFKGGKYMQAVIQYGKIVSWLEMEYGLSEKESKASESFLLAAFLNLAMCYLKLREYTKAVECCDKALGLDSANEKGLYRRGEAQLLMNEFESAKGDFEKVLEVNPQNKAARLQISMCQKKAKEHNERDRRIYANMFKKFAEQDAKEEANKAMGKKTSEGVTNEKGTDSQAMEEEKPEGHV
UniProt P53365, sequence (P53365 whole entry): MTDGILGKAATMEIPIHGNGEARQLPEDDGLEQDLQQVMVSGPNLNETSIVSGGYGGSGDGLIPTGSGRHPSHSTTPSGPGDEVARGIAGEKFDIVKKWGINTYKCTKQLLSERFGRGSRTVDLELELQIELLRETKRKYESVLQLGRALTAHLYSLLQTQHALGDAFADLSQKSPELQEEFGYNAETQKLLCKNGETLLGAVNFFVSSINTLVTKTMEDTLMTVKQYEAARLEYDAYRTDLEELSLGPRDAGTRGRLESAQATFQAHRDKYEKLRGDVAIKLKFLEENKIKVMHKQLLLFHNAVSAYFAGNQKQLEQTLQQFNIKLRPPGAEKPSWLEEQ
UniProt Q9GZP8, sequence (Q9GZP8 whole entry): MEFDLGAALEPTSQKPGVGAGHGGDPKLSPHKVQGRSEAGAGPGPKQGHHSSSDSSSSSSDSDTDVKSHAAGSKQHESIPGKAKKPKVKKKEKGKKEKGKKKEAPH
UniProt Q9BUE6, sequence (Q9BUE6 whole entry): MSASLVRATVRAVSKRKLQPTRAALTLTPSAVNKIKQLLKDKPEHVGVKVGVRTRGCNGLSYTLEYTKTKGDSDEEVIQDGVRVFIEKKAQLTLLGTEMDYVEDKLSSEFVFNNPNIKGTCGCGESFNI
UniProt Q9NVC3, sequence (Q9NVC3 whole entry): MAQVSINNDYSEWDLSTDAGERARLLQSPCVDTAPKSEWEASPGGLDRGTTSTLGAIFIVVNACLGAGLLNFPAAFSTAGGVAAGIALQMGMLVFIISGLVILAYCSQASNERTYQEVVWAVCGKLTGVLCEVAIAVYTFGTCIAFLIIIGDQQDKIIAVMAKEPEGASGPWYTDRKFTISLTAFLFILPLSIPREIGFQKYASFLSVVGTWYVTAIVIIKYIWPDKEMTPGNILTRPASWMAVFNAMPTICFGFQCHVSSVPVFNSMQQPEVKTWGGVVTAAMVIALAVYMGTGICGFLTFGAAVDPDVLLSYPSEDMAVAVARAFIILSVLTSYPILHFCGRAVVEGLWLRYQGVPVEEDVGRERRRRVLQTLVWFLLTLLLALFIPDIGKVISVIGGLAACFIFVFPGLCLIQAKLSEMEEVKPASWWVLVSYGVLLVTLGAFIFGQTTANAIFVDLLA
UniProt Q5TA50, sequence (Q5TA50 whole entry): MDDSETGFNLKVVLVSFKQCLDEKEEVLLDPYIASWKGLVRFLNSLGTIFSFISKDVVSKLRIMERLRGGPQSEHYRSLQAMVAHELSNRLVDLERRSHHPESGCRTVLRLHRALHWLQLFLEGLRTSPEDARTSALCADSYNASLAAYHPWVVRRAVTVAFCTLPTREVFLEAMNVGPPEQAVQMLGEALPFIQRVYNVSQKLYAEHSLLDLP
UniProt Q9NVS9, sequence (Q9NVS9 whole entry): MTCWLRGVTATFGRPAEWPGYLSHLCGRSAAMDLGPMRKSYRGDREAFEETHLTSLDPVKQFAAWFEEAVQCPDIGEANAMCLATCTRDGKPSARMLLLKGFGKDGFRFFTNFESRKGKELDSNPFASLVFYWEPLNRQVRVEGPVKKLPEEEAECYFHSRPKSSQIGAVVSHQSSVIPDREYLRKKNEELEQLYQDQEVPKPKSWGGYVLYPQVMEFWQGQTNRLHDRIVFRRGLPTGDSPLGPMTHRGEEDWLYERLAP

| Target | thermal stability z-score (potassium arsenate) | thermal stability z-score (lipoamide; [1]) | thermal stability z-score (lipoamide; arsenate co-treatment: none) |
| --- | --- | --- | --- |
| SLC38A7 (UniProt Q9NVC3) | -0.442 | -0.543 | -0.964 |
| CYP1B1 (UniProt Q16678) | -0.0983 | 0.0413 | 0.0132 |
| FAM134A (UniProt Q8NC44) | -0.162 | 0.119 | -0.141 |
| RCOR3 (UniProt Q9P2K3) | 0.119 | 0.0711 | 0.0826 |
| RAP2B (UniProt P61225) | -0.0313 | 0.92 | 0.134 |
| PRKCA (UniProt P17252) | 0.458 | 0.358 | 0.32 |
| SLC7A1 (UniProt P30825) | -0.33 | 0.364 | -0.194 |
| ITGB5 (UniProt P18084) | 0.289 | -1.1 | -0.661 |
| TIA1 (UniProt P31483) | -1.08 | -0.376 | 0.000117 |
| RPP38 (UniProt P78345) | -0.347 | -0.128 | 0.146 |
| MADD (UniProt Q8WXG6) | 1.3 | 0.198 | 1.4 |
| IMUP (UniProt Q9GZP8) | 0.162 | -0.123 | -0.141 |
| PRCP (UniProt P42785) | 0.42 | -0.242 | -0.33 |
| RPL18A (UniProt Q02543) | -0.333 | 0.628 | 0.246 |
| CPTP (UniProt Q5TA50) | 1.5 | 2.01 | 0.706 |
| DDRGK1 (UniProt Q96HY6) | 0.397 | -1.17 | -0.728 |
| ACTR5 (UniProt Q9H9F9) | -0.0841 | -0.0353 | -0.0633 |
| FAM234B (UniProt A2RU67) | -0.192 | -0.257 | -0.241 |

| Target | thermal stability z-score (potassium arsenate) | thermal stability z-score (lipoamide; [1]) | thermal stability z-score (lipoamide; arsenate co-treatment: none) |
| --- | --- | --- | --- |
| RYBP (UniProt Q8N488) | -0.269 | -0.607 | -0.174 |
| NCOA7 (UniProt Q8NI08) | 0.0655 | -0.676 | -0.721 |
| PCNT (UniProt O95613) | 0.281 | -0.505 | 0.496 |
| PNPO (UniProt Q9NVS9) | -0.734 | 0.101 | 0.677 |
| ASCC1 (UniProt Q8N9N2) | -0.708 | -1.01 | -0.215 |
| AP2A2 (UniProt O94973) | -0.337 | -0.0644 | -0.149 |
| SFPQ (UniProt P23246) | 1.15 | 2.47 | 2.22 |
| USP32 (UniProt Q8NFA0) | -0.0527 | -0.102 | -0.19 |
| TAOK1 (UniProt Q7L7X3) | -0.658 | -0.503 | -0.204 |
| ARFIP2 (UniProt P53365) | 0.108 | -0.0772 | -0.0355 |
| RPS28 (UniProt P62857) | -0.0195 | 0.574 | 0.243 |
| FKBP5 (UniProt Q13451) | -0.667 | -0.637 | -0.429 |
| NDUFV3 (UniProt P56181) | -0.157 | 0.238 | 0.504 |
| OSBPL5 (UniProt Q9H0X9) | -0.386 | -0.28 | -0.534 |
| ISCA1 (UniProt Q9BUE6) | 0.178 | -0.00815 | 0.577 |
| ASCC2 (UniProt Q9H1I8) | 1.51 | -0.0905 | 0.388 |
| RPL37A (UniProt P61513) | -0.29 | 0.766 | 0.392 |
| MFN1 (UniProt Q8IWA4) | 0.157 | -0.522 | -0.191 |
